Laboratory results taken from US4670584A, “Pharmaceutical composition having an excellent absorption property” (Ajinomoto Company Incorporated, priority 1986, dated 1987).
Residues, ends and D or L forms follow the SMILES beside them. *: point of attachment. Cbz = O=C(OCc1ccccc1)*

Assays:
[1] = Toxicity studies of phenylalanine derivatives, oral, in female CD-1(ICR) mice; conditions: mouse, in vivo, suspended in 0.5% CMC
Excerpt: Toxicity Studies of Phenylalanine Derivatives with Oral IN Potentiating Activity in Female CD-1(ICR) Mice are as follows:
Phenylalanine derivatives were suspended in 0.5% CMC.

[2] = Degree of decrease in blood glucose after intraduodenal administration with insulin in rats; type: in vivo, rat (Male SD rats); conditions: male SD rats, 1.5 mg/10 body weight with insulin 1.25 U/10 g, mean
Experimental: Each (Administration: 1.5 mg/10 body weight) of the absorption promoters, phenylalanine derivatives as previously listed in the table was dissolved or suspended in 0.01M phosphate buffer (pH 7.5) and the solution or suspension was mixed with aqueous insulin (Administation: 1.25 U/10 g body weight) solution. Male SD rats, 6 weeks old, were intraduodenally administrated with predetermined amounts of the mixtures after being incised abdominally. The incised wounds were sutured quickly. A predetermined duration later, the percent decreases in blood glucose were determined. In the experiment, four rats a group were used, and the experiment was repeated 2 to 5 times. The mean values of the thus obtained data were described in the table.

[3] = Usefulness as absorption promoter; conditions: statement in words, no data
[4] = Oral insulin absorption in female ICR-CD-1 mice: percent decrease in blood glucose and degree of elevation of blood insulin; type: in vivo, mouse (Female ICR-CD-1 mice); conditions: vs control group
Experimental: The absorption promoter samples listed in Table 2 were dissolved or suspended in 0.5% CMC-0.05M tris-HCl buffers (pH: 7.8) and the solutions or suspensions were mixed with aqueous insulin solution. Female ICR-CD-1 mice 5 to 7 weeks old were orally administered predetermined amounts of the mixtures. A predetermined duration later, the percent decrease in blood glucose and the degree of elevation of blood insulin as compared with the control group were measured. The symbol "Z" in the structural formulas in the table represents a benzyloxycarbonyl group. The upper figures in the columns "effectiveness" represent the percent decrease in blood glucose and the lower parenthesized figures indicate the degree of elevation in blood insulin.

[5] = sample 6.0 mg/10 g with insulin 2.5 U/10 g, 60 minutes
[6] = sample 6.0 mg/10 g with insulin 2.5 U/10 g, 30 minutes

SMILES	LD50 [1] [mg/kg]	Decrease in Blood Glucose ([2]; 30 minutes) [%]	Decrease in Blood Glucose ([2]; 60 minutes) [%]	other results
O=C(COc1cccc2ccccc12)N[C@@H](Cc1ccccc1)C(=O)O [Sample S-11, N-[(1-naphthoxy)acetyl]-L-phenylalanine]	> 4000	–	–	–
O=C(N[C@H](Cc1ccccc1)C(=O)O)C(F)=Cc1ccccc1 [Sample S-48, N-(α-fluorocinnamoyl)-D-phenylalanine]	–	73.7	72.9	–
O=C(C=Cc1ccc2ccccc2c1)N[C@@H](Cc1ccccc1)C(=O)O [Sample S-37, N-(2-Naphthylacryloyl)-L-phenylalanine]	–	55.3	40.2	–
CCc1ccc(C=CC(=O)N[C@@H](Cc2ccccc2)C(=O)O)cc1 [Sample S-39, N-(4-ethylcinnamoyl)-L-phenylalanine]	–	56.0	32.5	–
N[C@@H](Cc1ccccc1)C(=O)O [Phenylalanine]	–	–	–	usefulness as absorption promoter [3]: not useful as absorption promoters
Cc1cccc(C=CC(=O)N[C@H](Cc2ccccc2)C(=O)O)c1 [Sample S-42, N-(3-methylcinnamoyl)-D-phenylalanine]	–	48.8	40.7	–
O=C(NC(Cc1ccc(F)cc1)C(=O)N[C@@H](Cc1ccccc1)C(=O)O)OCc1ccccc1 (mixture of isomers) [Sample S-22, N-benzyloxycarbonyl-4-fluoro-DL-phenylalanyl-L-phenylalanine]	–	–	–	Decrease in Blood Glucose ([4]; sample 3.0 mg/10 g with insulin 2.5 U/10 g, 30 minutes): 63.1%
O=C(N[C@H](Cc1ccccc1)C(=O)O)OCc1ccccc1 [Sample S-18, N-benzyloxycarbonyl-D-phenylalanine]	> 4000	–	–	–
O=C(N[C@@H](Cc1ccccc1)C(=O)O)C(Cl)=Cc1ccccc1 [Sample S-49, N-(α-Chlorocinnamoyl)-L-phenylalanine 1/2C2 H5 OH]	–	63.2	49.1	–
O=C(N[C@@H](Cc1ccccc1)C(=O)N[C@@H](Cc1ccc(O)cc1)C(=O)O)OCc1ccccc1 [Sample S-10, N-benzyloxycarbonyl-L-phenylalanyl-L-tyrosine] (Cbz-Phe-Tyr-OH)	> 3000	–	–	–
O=C(C=Cc1cccc2ccccc12)N[C@@H](Cc1ccccc1)C(=O)O [Sample S-45, N-(1-naphthylacryloyl)-L-phenylalanine]	–	41.2	35.4	–
O=C(COc1ccccc1)N[C@@H](Cc1ccccc1)C(=O)O [Sample S-5, N-phenoxyacetyl-L-phenylalanine]	> 4000	–	–	–
CC(=O)N[C@@H](Cc1ccccc1)C(=O)O [N-acetylphenylalanine]	–	–	–	usefulness as absorption promoter [3]: not useful as absorption promoters
O=C(N[C@@H](Cc1ccc(O)cc1)C(=O)O)OCc1ccccc1 [Sample S-16, N-benzyloxycarbonyl-L-tyrosne]	–	–	–	Decrease in Blood Glucose [4, 5]: 27.2%
O=C(C=Cc1cccc2ccccc12)N[C@H](Cc1ccccc1)C(=O)O [Sample S-46, N-(1-naphthylacryloyl)-D-phenylalanine]	–	41.6	28.8	–
CCc1ccc(C=CC(=O)N[C@H](Cc2ccccc2)C(=O)O)cc1 [Sample S-40, N-(4-ethylcinnamoyl)-D-phenylalanine]	–	33.9	28.1	–
O=C(COc1ccc2ccccc2c1)N[C@@H](Cc1ccccc1)C(=O)O [Sample S-12, N-[(2-naphthoxy)acetyl]-L-phenylalanine]	> 4000	–	–	–
O=C(N[C@@H](Cc1ccccc1)C(=O)N[C@@H](Cc1ccccc1)C(=O)O)OCc1ccccc1 [Sample S-7, N-benzyloxycarbonyl-L-phenylalanyl-L-phenylalanine] (Cbz-Phe-Phe-OH)	> 3000	–	–	–
O=C(CCCc1ccccc1)N[C@@H](Cc1ccccc1)C(=O)O [Sample S-8, N-(4-phenylbutyroyl)-L-phenylalanine]	–	–	–	Decrease in Blood Glucose [4, 6]: 57.1%; Decrease in Blood Glucose [4, 5]: 35.6%
Cc1ccc(C=CC(=O)N[C@H](Cc2ccccc2)C(=O)O)cc1 [Sample S-47, N-(4-methylcinnamoyl)-D-phenylalanine]	–	52.3	41.0	–
O=C(COc1ccc([N+](=O)[O-])cc1)NC(Cc1ccc([N+](=O)[O-])cc1)C(=O)O (racemic) [Sample S-2, N-[(4-nitrophenoxy)acetyl]-4-nitro-DL-phenylalanine]	–	–	–	Decrease in Blood Glucose [4, 6]: 23.2%
COc1ccc(COC(=O)N[C@@H](Cc2ccccc2)C(=O)O)cc1 [Sample S-17, N-(4-methoxybenzyloxycarbonyl)-L-phenylalanine]	750	–	–	–
O=C(C=Cc1cccc(Cl)c1)N[C@@H](Cc1ccccc1)C(=O)O [Sample S-43, N-(3-chlorocinnamoyl)-L-phenylalanine]	–	50.9	46.9	–
O=C(C=Cc1cccc(Cl)c1)N[C@H](Cc1ccccc1)C(=O)O [Sample S-44, N-(3-chlorocinnamoyl)-D-phenylalanine]	–	55.0	49.3	–
Cc1cccc(C=CC(=O)N[C@@H](Cc2ccccc2)C(=O)O)c1 [Sample S-41, N-(3-methylcinnamoyl)-L-phenylalanine]	–	50.5	35.3	–
O=C(N[C@H](Cc1ccccc1)C(=O)O)C(Cl)=Cc1ccccc1 [Sample S-50, N-(α-Chlorocinnamoyl)-D-phenylalanine 1/2C2 H5 OH]	–	79.0	74.9	–
O=C(C=Cc1ccc2ccccc2c1)N[C@H](Cc1ccccc1)C(=O)O [Sample S-38, N-(2-Naphthylacryloyl)-D-phenylalanine]	–	27.0	24.7	–
O=C(N[C@@H](Cc1ccccc1)C(=O)O)OCc1ccccc1 [Sample S-15, N-benzyloxycarbonyl-L-phenylalanine]	> 2750	–	–	–
O=C(C=Cc1ccccc1)N[C@@H](Cc1ccccc1)C(=O)O [Sample S-3, N-cinnamoyl-L-phenylalanine]	> 2500	–	–	–
O=C(COc1ccc(Cl)cc1)N[C@@H](Cc1ccccc1)C(=O)O [Sample S-13, N-[(4-chlorophenoxy)acetyl]-L-phenylalanine]	> 3500	–	–	–
